The test system of experiment [1] is PC-3. Description: Growth inhibition of human PC3 cells. It is filed as functional.
The subject of experiment [2] is DU-145. Nature of the experiment: Growth inhibition of human DU145 cells. It is filed as functional.
Experiment [3] relates to Mus musculus. Description: Antidepressant activity in Swiss Webster mouse at 0 to10 mg/kg, ip by forced swim test. Type of experiment: functional, organism-based.

Active and inactive are the calls of the source. The calls are words filed in the database; no cut-off is given here.

Turning to `C/C=C1\NC(=O)[C@H](Cc2ccccc2)NC(=O)[C@@H](C(C)C)NC(=O)[C@@H]([C@H](C)CC)NC(=O)[C@H](NC(=O)[C@H](NC(=O)[C@H](CCCN)NC(=O)[C@H]2CCCN2C(=O)[C@H](NC(=O)[C@@H](NC(=O)[C@@H](NC(=O)[C@H](NC(=O)CCCC(C)C)C(C)C)[C@@H](C)O)C(C)C)C(C)C)[C@H](C)CC)[C@H](C)OC(=O)[C@H](C(C)C)NC1=O` [KAHALALIDE F], the “growth inhibition (GI)” value in experiment [1] and in experiment [2] was 40% throughout. Take `CC(C)CCC[C@H]1CC(=O)N[C@H](Cc2c[nH]c3ccccc23)C(=O)N2CCC[C@H]2C(=O)N[C@@H](CCCNC(=N)N)C(=O)O1`: the result in experiment [3] was inactive.

The record behind these values is ChEMBL document CHEMBL1150256, “Kahalalides V-Y isolated from a Hawaiian collection of the sacoglossan mollusk Elysia rufescens” (2008).
